Consider two compounds from PMC8177097 (FEBS letters, 2020).

Molecules are shown by their SMILES.

For experiment [1], the target named is T1, lipocalin Blc (wtBlc) (Escherichia coli, UniProt P0A901).
T1 sequence (P0A901 19-177): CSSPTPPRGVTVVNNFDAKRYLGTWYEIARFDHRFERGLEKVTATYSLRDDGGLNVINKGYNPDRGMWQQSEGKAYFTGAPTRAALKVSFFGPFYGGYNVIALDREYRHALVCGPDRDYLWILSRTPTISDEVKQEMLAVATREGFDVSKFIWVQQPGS
The experiment can be described thus: tryptophan fluorescence quenching titration. Type of experiment: binding.

Experiment [2] has as its target T1, lipocalin Blc (wtBlc). Put plainly: spectrophotometric hemin titration. In kind it is binding.

For `CC1=C(CCC(=O)O)c2cc3[nH]c(cc4nc(cc5[nH]c(cc1n2)c(C)c5C(C)O)C(C)=C4C(C)O)c(C)c3CCC(=O)O` (centres unmarked) [HP, hematoporphyrin], on lipocalin Blc (wtBlc) [1], binding was characterised by a dissociation constant (Kd) of 0.14 ± 0.1 nM.
For `C=CC1=C(C)C2=Cc3c(C=C)c(C)c4[n]3[Fe][n]3c(c(C)c(CCC(=O)O)c3=CC3=NC(=C4)C(C)=C3CCC(=O)O)=CC1=N2` [heme], the Kd (in general, the constant that tells how readily two partners part at equilibrium) at lipocalin Blc (wtBlc) [2] worked out at 1400 ± 300 nM.
